Results taken from ChEMBL document CHEMBL1124467, “The binding of benzenesulfonamides to carbonic anhydrase enzyme. A molecular mechanics study and quantitative structure-activity relationships” (J Med Chem, 1989).

How the values were obtained:
Bos taurus = species on record: Bos taurus; assay: Inhibitory activity against bovine erythrocyte B enzyme
[1] = molecular target: T1, Carbonic anhydrase (Bos taurus) (UniProt P00921+Q95323+P18915+Q3SZX4)
Description: Inhibitory activity against bovine Carbonic anhydrase

[2] = molecular target: T1, Carbonic anhydrase (Bos taurus); assay: Inhibitory activity against Carbonic anhydrase; format: protein assay

Row | Log II50 [1] | Structure (SMILES) | also measured
1 | – | NS(=O)(=O)c1ccccc1Cl | Log II50 (Bos taurus): 0.88
2 | 0.66 | Cc1cccc(S(N)(=O)=O)c1 | –
3 | 0.18 | CNc1ccc(S(N)(=O)=O)cc1 | –
4 | 0.48 | Cc1ccc(S(N)(=O)=O)cc1C | –
5 | 0.71 | COc1ccc(S(N)(=O)=O)cc1 | –
6 | 0.16 | Cc1ccccc1S(N)(=O)=O | –
7 | – | NS(=O)(=O)c1cccc(Cl)c1 | Log II50 (Bos taurus): 1
8 | 0.78 | Cc1ccc(S(N)(=O)=O)cc1 | –
9 | – | CC(=O)c1ccc(S(N)(=O)=O)cc1 | Log II50 (Bos taurus): 1.32
10 | 1.48 | CC(=O)Nc1ccc(S(N)(=O)=O)cc1 | –
11 | 1.25 | NS(=O)(=O)c1cccc([N+](=O)[O-])c1 | –
12 | 0.58 | NS(=O)(=O)c1ccccc1 | –
13 | – | NS(=O)(=O)c1ccc(Cl)c([N+](=O)[O-])c1 | Log II50 [2]: 2.13
14 | 1.76 | NS(=O)(=O)c1ccc(Cl)c(Cl)c1 | –
15 | 1.08 | NS(=O)(=O)c1ccc(Cl)cc1 | –
16 | 1.74 | NS(=O)(=O)c1ccc([N+](=O)[O-])c(Cl)c1 | –
